Source: patent US20090247532A1, “Crystalline polymorph of sitagliptin phosphate and its preparation” (Mae De Ltd., priority 2008, published 2009)
Like-named read-outs stand apart in the source and are kept apart here.

Key:
[1] = cited from earlier work; for stability of the form (in words): as reported in US 2006/0287528 or US 2007/0021430; for conversion into crystalline sitagliptin phosphate monohydrate: US 2007/0021430
[2] = Thermal phase stability of Form V on heating; type: physicochemical; conditions: heating up to 41° C.
Excerpt: Additionally, Form V has lower water content, good material flow characteristic and better chemical stability.

[3] = Stability studies of Form V bulk material and tablets on storage, stability-indicating HPLC; type: physicochemical; conditions: bulk material
Protocol: The stability of Form V of sitagliptin phosphate bulk material and tablets is assessed by storing samples for up to 12 weeks at 25° C./60% RH or up to 3 weeks at 40° C./75% RH. Changes are monitored using a stability-indicating HPLC method. Results were calculated by normalized peak area (npa). Degradants are identified by comparison of their relative retention times against impurity standards.

[4] = Solubility of sitagliptin phosphate in water and polar organic solvents; type: physicochemical
Excerpt: In a preferred aspect, Form V of sitagliptin phosphate may be prepared by slurring starting material, crude or pure sitagliptin phosphate, anhydrate or solvate, which can be obtained according to the procedures described in U.S. patent application 2005/0032804 with a polar organic solvent or a mixture of two or more polar organic solvents under heat. The sitagliptin phosphate is soluble in water, but not soluble in polar organic solvents. The preferred polar organic solvent is methanol or acetone. The concentration of sitagliptin phosphate within the solution may range from about 0.1% by weight to the saturation point. This concentration will, of course, vary depending upon the temperature at which the co-solvent solution is held, with warmer temperatures generally allowing for the preparation of more concentrated solutions of sitagliptin phosphate. Preferably, the concentration (w/w %) of sitagliptin phosphate starting material in solution is about 0.5-15%, preferably about 1-10%, more preferably about 1.5-5%. The volume ratio of water to methanol or acetone is about 1:0.1-200, preferably about 1:2-30, more preferably about 1:3-10, most preferably about 1:4-6. […]

N[C@@H](CC(=O)N1CCn2c(nnc2C(F)(F)F)C1)Cc1cc(F)c(F)cc1F.O=P(O)(O)O [Form III]
temperature below which the form is stable ([1]; US 2006/0287528): below 34 °C

N[C@@H](CC(=O)N1CCn2c(nnc2C(F)(F)F)C1)Cc1cc(F)c(F)cc1F.O=P(O)(O)O [Form II]
stability of the form (in words) [1]: metastable
time to convert to anhydrous Form I or Form III or mixtures thereof ([1]; at about 45° C., US 2006/0287528): about 2 hours

N[C@@H](CC(=O)N1CCn2c(nnc2C(F)(F)F)C1)Cc1cc(F)c(F)cc1F.O=P(O)(O)O [Form IV]
conversion into crystalline sitagliptin phosphate monohydrate ([1]; ambient conditions): slowly
stability of the form (in words) [1]: metastable
conversion into crystalline sitagliptin phosphate monohydrate ([1]; high relative humidity (98%) at room temperature): rapidly

N[C@@H](CC(=O)N1CCn2c(nnc2C(F)(F)F)C1)Cc1cc(F)c(F)cc1F.O=P(O)(O)O [Form I]
conversion on grinding or compaction ([1]; grinding or compaction, US 2006/0287528): can be converted into Form III

N[C@@H](CC(=O)N1CCn2c(nnc2C(F)(F)F)C1)Cc1cc(F)c(F)cc1F.O=P(O)(O)O [Form V, (2R)-4-oxo-4-[3-(trifluoromethyl)-5,6-dihydro[1,2,4]triazolo[4,3-α]pyrazin-7(8H)yl]-1-(2,4,5-trifluorophenyl)butan-2-amine dihydrogenphosphate]
phase transformation on heating [2]: does not undergo a phase transformation
time for which polymorph (phase) and chemical stability was demonstrated ([3]; elevated temperature and humidity (40° C./75%)): over 3 weeks
time stable with respect to polymorphic form (phase) stability and formation of known and unknown degradants ([3]; stored under normal conditions of temperature and humidity): over 3 months

N[C@@H](CC(=O)N1CCn2c(nnc2C(F)(F)F)C1)Cc1cc(F)c(F)cc1F.O=P(O)(O)O [ethanol solvate]
stability of the form (in words) [1]: not a stable form

N[C@@H](CC(=O)N1CCn2c(nnc2C(F)(F)F)C1)Cc1cc(F)c(F)cc1F.O=P(O)(O)O [sitagliptin phosphate, dihydrogenphosphate salt of (2R)-4-oxo-4-[3-(trifluoromethyl)-5,6-dihydro[1,2,4]triazolo[4,3-α]pyrazin-7(8H)yl]-1-(2,4,5-trifluorophenyl)butan-2-amine]
solubility in polar organic solvents ([4]; polar organic solvents (e.g. methanol, acetone)): not soluble
solubility in water ([4]; water): soluble
